Laboratory results reported in the NIST ThermoML archive (doi:10.1021/acs.jced.6b00202).
± gives the expanded uncertainty stated by the source.

Details: Liquid

COC(C)(C)C [2-methoxy-2-methylpropane]
Brillouin light scattering
Details | speed of sound [m/s]
303.11 K, 7000 kPa | 1078.5 ± 11
303.12 K, 10000 kPa | 1093.4 ± 11
303.13 K, 1000 kPa | 1023.2 ± 10
303.15 K, 2500 kPa | 1035.3 ± 10
303.15 K, 8500 kPa | 1086.9 ± 11
303.2 K, 4000 kPa | 1045.4 ± 10
303.2 K, 5500 kPa | 1058.1 ± 11
308.06 K, 2500 kPa | 1018.4 ± 10
308.11 K, 10000 kPa | 1080 ± 11
308.12 K, 4000 kPa | 1025.3 ± 10
308.13 K, 5500 kPa | 1037.2 ± 10
308.13 K, 8500 kPa | 1064.6 ± 11
308.23 K, 1000 kPa | 1003.3 ± 10
308.24 K, 7000 kPa | 1052.5 ± 11
313.09 K, 1000 kPa | 975 ± 9.8
313.1 K, 2500 kPa | 990.3 ± 10
313.13 K, 7000 kPa | 1034.7 ± 10
313.15 K, 4000 kPa | 1007 ± 10
313.17 K, 10000 kPa | 1051.6 ± 11
313.2 K, 5500 kPa | 1018.3 ± 10
313.24 K, 8500 kPa | 1049 ± 11
318.06 K, 8500 kPa | 1020.1 ± 10
318.07 K, 1000 kPa | 959.3 ± 9.7
318.18 K, 7000 kPa | 1012.5 ± 10
318.22 K, 4000 kPa | 985.3 ± 9.9
318.23 K, 2500 kPa | 971.4 ± 9.8
318.24 K, 5500 kPa | 996.7 ± 10
318.25 K, 10000 kPa | 1040 ± 11
323.07 K, 10000 kPa | 1016.8 ± 10
323.12 K, 8500 kPa | 1006.1 ± 10
323.14 K, 7000 kPa | 987.9 ± 10
323.15 K, 1000 kPa | 932.5 ± 9.4
323.18 K, 2500 kPa | 947.7 ± 9.6
323.21 K, 5500 kPa | 982.2 ± 10
323.25 K, 4000 kPa | 964.9 ± 9.8
328.06 K, 7000 kPa | 971.9 ± 9.8
328.08 K, 1000 kPa | 917 ± 9.3
328.11 K, 2500 kPa | 926.2 ± 9.3
328.13 K, 8500 kPa | 984.6 ± 10
328.14 K, 5500 kPa | 963.3 ± 9.8
328.16 K, 4000 kPa | 942.5 ± 9.5
328.19 K, 10000 kPa | 991.7 ± 10
333.08 K, 1000 kPa | 893.5 ± 9
333.08 K, 2500 kPa | 904.6 ± 9.1
333.12 K, 4000 kPa | 920.6 ± 9.3
333.18 K, 10000 kPa | 978.4 ± 9.9
333.2 K, 5500 kPa | 941.5 ± 9.6
333.21 K, 7000 kPa | 949.1 ± 9.7
333.22 K, 8500 kPa | 967.6 ± 9.9
338.09 K, 1000 kPa | 867.8 ± 8.8
338.11 K, 7000 kPa | 931.3 ± 9.4
338.11 K, 8500 kPa | 941 ± 9.6
338.16 K, 5500 kPa | 922.2 ± 9.4
338.17 K, 10000 kPa | 954.4 ± 9.8
338.22 K, 4000 kPa | 898.7 ± 9.1
338.23 K, 2500 kPa | 884.4 ± 8.9
343.15 K, 7000 kPa | 911.8 ± 9.4
343.18 K, 8500 kPa | 926.4 ± 9.5
343.19 K, 4000 kPa | 883.2 ± 8.9
343.19 K, 5500 kPa | 892.8 ± 9.1
343.2 K, 1000 kPa | 845.4 ± 8.6
343.22 K, 2500 kPa | 868.6 ± 8.8

Brillouin Light Scattering
Details | speed of sound [m/s]
303.19 K | 1024.7 ± 10
308.16 K | 988.6 ± 10
313.08 K | 960.4 ± 9.7
318.19 K | 942.7 ± 9.5
323.07 K | 912.4 ± 9.2
328.21 K | 904.7 ± 9.1
333.13 K | 876.8 ± 8.8
338.07 K | 855.1 ± 8.6
343.12 K | 826.3 ± 8.3
